The values below are quoted from earlier work in paper PMC7941644, “Identification and Development of Therapeutics for COVID-19” (ArXiv, 2021).

For this series, the system named is SARS-CoV-2.

Regarding `CCC(CC)COC(=O)[C@H](C)N[P@](=O)(OC[C@H]1O[C@@](C#N)(c2ccc3c(N)ncnn23)[C@H](O)[C@@H]1O)Oc1ccccc1` [remdesivir], the “inhibition of SARS-CoV-2 in vitro” value was “inhibit SARS-CoV-2, showing synergy with CQ in vitro”.
